Assay results taken from PubChem BioAssay (NCI).
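Growth conditions: 96-well plates. Treatment: test compound, 48 hours, 5 concentrations. Analysis: linear interpolation between bracketing concentrations; unreached endpoints set to highest concentration. GI50 marks 50% less growth. TGI: concentration producing complete growth inhibition.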

How the values were obtained:
Assay in all cases: DTP human tumour cell line panel, 48 h
786-0 renal = test system: 786-0 renal
A498 renal = test system: A498 renal
A549 NSCLC = test system: A549 NSCLC
ACHN renal = test system: ACHN renal
BT-549 breast = test system: BT-549 breast
CAKI-1 renal = test system: CAKI-1 renal
COLO 205 colon = test system: COLO 205 colon
DU-145 prostate = test system: DU-145 prostate
EKVX NSCLC = test system: EKVX NSCLC
HCC-2998 colon = test system: HCC-2998 colon
HCT-116 colon = test system: HCT-116 colon
HCT-15 colon = test system: HCT-15 colon
HL-60(TB) leukemia = test system: HL-60(TB) leukemia
HOP-62 NSCLC = test system: HOP-62 NSCLC
HOP-92 NSCLC = test system: HOP-92 NSCLC
HS 578T breast = test system: HS 578T breast
HT29 colon = test system: HT29 colon
IGROV1 ovarian = test system: IGROV1 ovarian
K-562 leukemia = test system: K-562 leukemia
KM12 colon = test system: KM12 colon
LOX IMVI melanoma = test system: LOX IMVI melanoma
M14 melanoma = test system: M14 melanoma
MALME-3M melanoma = test system: MALME-3M melanoma
MCF7 breast = test system: MCF7 breast
MDA-MB-231 breast = test system: MDA-MB-231 breast
MDA-MB-435 = test system: MDA-MB-435
MOLT-4 leukemia = test system: MOLT-4 leukemia
NCI-H226 lung = test system: NCI-H226 lung
NCI-H23 lung = test system: NCI-H23 lung
NCI-H460 lung = test system: NCI-H460 lung
NCI-H522 lung = test system: NCI-H522 lung
NCI/ADR-RES ovarian = test system: NCI/ADR-RES ovarian
OVCAR-3 ovarian = test system: OVCAR-3 ovarian
OVCAR-4 ovarian = test system: OVCAR-4 ovarian
OVCAR-5 ovarian = test system: OVCAR-5 ovarian
OVCAR-8 ovarian = test system: OVCAR-8 ovarian
PC-3 prostate = test system: PC-3 prostate
RPMI-8226 leukemia = test system: RPMI-8226 leukemia
RXF 393 renal = test system: RXF 393 renal
SF-268 CNS = test system: SF-268 CNS
SF-295 CNS = test system: SF-295 CNS
SF-539 CNS = test system: SF-539 CNS
SK-MEL-2 melanoma = test system: SK-MEL-2 melanoma
SK-MEL-28 melanoma = test system: SK-MEL-28 melanoma
SK-MEL-5 melanoma = test system: SK-MEL-5 melanoma
SK-OV-3 ovarian = test system: SK-OV-3 ovarian
SN12C renal = test system: SN12C renal
SNB-19 CNS = test system: SNB-19 CNS
SNB-75 CNS = test system: SNB-75 CNS
SR leukemia = test system: SR leukemia
SW-620 colon = test system: SW-620 colon
T-47D breast = test system: T-47D breast
TK-10 renal = test system: TK-10 renal
U251 CNS = test system: U251 CNS
UACC-257 melanoma = test system: UACC-257 melanoma
UACC-62 melanoma = test system: UACC-62 melanoma
UO-31 renal = test system: UO-31 renal
CCRF-CEM leukemia = test system: CCRF-CEM leukemia

SMILES: COC(=O)[C@@]12OC[C@]34[C@H]([C@@H](O)[C@@H]1O)[C@@]1(C)[C@H](O)C(=O)C=C(C)[C@@H]1C[C@H]3OC(=O)C(OC(C)=O)[C@@H]24 (stereo partly drawn)
- GI50 (786-0 renal): 26 nM
- TGI (786-0 renal): 88.9 nM
- GI50 (A498 renal): 14.6 nM
- TGI (A498 renal): 41.3 nM
- GI50 (A549 NSCLC): 38.1 nM
- TGI (A549 NSCLC): 294 nM
- GI50 (ACHN renal): 50.2 nM
- TGI (ACHN renal): 280 nM
- GI50 (BT-549 breast): 18.2 nM
- TGI (BT-549 breast): 56.1 nM
- GI50 (CAKI-1 renal): 107 nM
- TGI (CAKI-1 renal): 394 nM
- GI50 (COLO 205 colon): 40.8 nM
- TGI (COLO 205 colon): 178 nM
- GI50 (DU-145 prostate): 44.5 nM
- TGI (DU-145 prostate): 206 nM
- GI50 (EKVX NSCLC): 52.9 nM
- TGI (EKVX NSCLC): 372 nM
- GI50 (HCC-2998 colon): 16.8 nM
- TGI (HCC-2998 colon): 111 nM
- GI50 (HCT-116 colon): 22 nM
- TGI (HCT-116 colon): 50.3 nM
- GI50 (HCT-15 colon): 101 nM
- TGI (HCT-15 colon): 458 nM
- GI50 (HL-60(TB) leukemia): 11.9 nM
- TGI (HL-60(TB) leukemia): 31.5 nM
- GI50 (HOP-62 NSCLC): 29.4 nM
- TGI (HOP-62 NSCLC): 156 nM
- GI50 (HOP-92 NSCLC): 36.4 nM
- TGI (HOP-92 NSCLC): 309 nM
- GI50 (HS 578T breast): 19.3 nM
- TGI (HS 578T breast): 52.3 nM
- GI50 (HT29 colon): 30.3 nM
- TGI (HT29 colon): 136 nM
- GI50 (IGROV1 ovarian): 30.2 nM
- TGI (IGROV1 ovarian): 134 nM
- GI50 (K-562 leukemia): 31.4 nM
- GI50 (KM12 colon): 30 nM
- TGI (KM12 colon): 136 nM
- GI50 (LOX IMVI melanoma): 15.2 nM
- TGI (LOX IMVI melanoma): 31.1 nM
- GI50 (M14 melanoma): 26.1 nM
- TGI (M14 melanoma): 78.5 nM
- GI50 (MALME-3M melanoma): 15.1 nM
- TGI (MALME-3M melanoma): 46.6 nM
- GI50 (MCF7 breast): 21.4 nM
- TGI (MCF7 breast): 70.1 nM
- GI50 (MDA-MB-231 breast): 97.9 nM
- TGI (MDA-MB-231 breast): 366 nM
- GI50 (MDA-MB-435): 31.9 nM
- TGI (MDA-MB-435): 148 nM
- GI50 (MOLT-4 leukemia): < 14.5 nM
- TGI (MOLT-4 leukemia): 48.7 nM
- GI50 (NCI-H226 lung): 25 nM
- TGI (NCI-H226 lung): 99.2 nM
- GI50 (NCI-H23 lung): 18.7 nM
- TGI (NCI-H23 lung): 56.7 nM
- GI50 (NCI-H460 lung): 18.3 nM
- TGI (NCI-H460 lung): 52.4 nM
- GI50 (NCI-H522 lung): < 11.1 nM
- TGI (NCI-H522 lung): 41 nM
- GI50 (NCI/ADR-RES ovarian): 904 nM
- TGI (NCI/ADR-RES ovarian): 8530 nM
- GI50 (OVCAR-3 ovarian): 24.8 nM
- TGI (OVCAR-3 ovarian): 71.4 nM
- GI50 (OVCAR-4 ovarian): 39.8 nM
- TGI (OVCAR-4 ovarian): 272 nM
- GI50 (OVCAR-5 ovarian): 69 nM
- TGI (OVCAR-5 ovarian): 410 nM
- GI50 (OVCAR-8 ovarian): 37.1 nM
- TGI (OVCAR-8 ovarian): 266 nM
- GI50 (PC-3 prostate): 33.4 nM
- TGI (PC-3 prostate): 134 nM
- GI50 (RPMI-8226 leukemia): 17 nM
- TGI (RPMI-8226 leukemia): 39.6 nM
- GI50 (RXF 393 renal): 25.3 nM
- TGI (RXF 393 renal): 67.3 nM
- GI50 (SF-268 CNS): 42.8 nM
- TGI (SF-268 CNS): 231 nM
- GI50 (SF-295 CNS): 24.1 nM
- TGI (SF-295 CNS): 84.7 nM
- GI50 (SF-539 CNS): 21.8 nM
- TGI (SF-539 CNS): 61.2 nM
- GI50 (SK-MEL-2 melanoma): 57.4 nM
- TGI (SK-MEL-2 melanoma): 319 nM
- GI50 (SK-MEL-28 melanoma): 19 nM
- TGI (SK-MEL-28 melanoma): 64.2 nM
- GI50 (SK-MEL-5 melanoma): 16.2 nM
- TGI (SK-MEL-5 melanoma): 40.6 nM
- GI50 (SK-OV-3 ovarian): 52.2 nM
- TGI (SK-OV-3 ovarian): 1120 nM
- GI50 (SN12C renal): 46 nM
- TGI (SN12C renal): 307 nM
- GI50 (SNB-19 CNS): 23.2 nM
- TGI (SNB-19 CNS): 299 nM
- GI50 (SNB-75 CNS): 27.3 nM
- TGI (SNB-75 CNS): 121 nM
- GI50 (SR leukemia): 19.5 nM
- TGI (SR leukemia): 42.5 nM
- GI50 (SW-620 colon): 24.2 nM
- TGI (SW-620 colon): 128 nM
- GI50 (T-47D breast): 36.2 nM
- TGI (T-47D breast): 300 nM
- GI50 (TK-10 renal): 37.4 nM
- TGI (TK-10 renal): 197 nM
- GI50 (U251 CNS): 20.7 nM
- TGI (U251 CNS): 44.3 nM
- GI50 (UACC-257 melanoma): 66.8 nM
- TGI (UACC-257 melanoma): 428 nM
- GI50 (UACC-62 melanoma): 24.5 nM
- TGI (UACC-62 melanoma): 142 nM
- GI50 (UO-31 renal): 113 nM
- TGI (UO-31 renal): 449 nM

SMILES: CC(=O)C1=C(C)N(c2ccc(C)cc2)C2(O)C=CC(=O)C3C(=O)N(c4ccccc4)C(=O)C132 (stereo not drawn)
- TGI (786-0 renal): > 100000 nM
- TGI (A498 renal): 39600 nM
- TGI (A549 NSCLC): > 100000 nM
- TGI (ACHN renal): 40400 nM
- TGI (BT-549 breast): 39800 nM
- TGI (CAKI-1 renal): 45400 nM
- TGI (CCRF-CEM leukemia): > 100000 nM
- TGI (COLO 205 colon): > 100000 nM
- TGI (DU-145 prostate): 74300 nM
- TGI (EKVX NSCLC): 95500 nM
- TGI (HCC-2998 colon): 52300 nM
- TGI (HCT-116 colon): > 100000 nM
- TGI (HCT-15 colon): > 100000 nM
- TGI (HL-60(TB) leukemia): 18400 nM
- TGI (HOP-62 NSCLC): > 100000 nM
- TGI (HOP-92 NSCLC): 43100 nM
- TGI (HS 578T breast): > 100000 nM
- TGI (HT29 colon): 44800 nM
- TGI (IGROV1 ovarian): 22300 nM
- TGI (K-562 leukemia): 66300 nM
- TGI (KM12 colon): 74200 nM
- TGI (M14 melanoma): > 100000 nM
- TGI (MALME-3M melanoma): 46600 nM
- TGI (MCF7 breast): 53700 nM
- TGI (MDA-MB-231 breast): 42800 nM
- TGI (MDA-MB-435): > 100000 nM
- TGI (NCI-H226 lung): 34300 nM
- TGI (NCI-H23 lung): 46100 nM
- TGI (NCI-H460 lung): > 100000 nM
- TGI (NCI-H522 lung): 22000 nM
- TGI (NCI/ADR-RES ovarian): > 100000 nM
- TGI (OVCAR-3 ovarian): > 100000 nM
- TGI (OVCAR-4 ovarian): 41200 nM
- TGI (OVCAR-5 ovarian): > 100000 nM
- TGI (OVCAR-8 ovarian): 59200 nM
- TGI (PC-3 prostate): 62300 nM
- TGI (RPMI-8226 leukemia): > 100000 nM
- TGI (RXF 393 renal): 54300 nM
- TGI (SF-268 CNS): > 100000 nM
- TGI (SF-295 CNS): 43700 nM
- TGI (SF-539 CNS): 65200 nM
- TGI (SK-MEL-2 melanoma): 28800 nM
- TGI (SK-MEL-28 melanoma): 43800 nM
- TGI (SK-MEL-5 melanoma): 34000 nM
- TGI (SN12C renal): 34200 nM
- TGI (SNB-19 CNS): 65600 nM
- TGI (SNB-75 CNS): 50500 nM
- TGI (SR leukemia): 23700 nM
- TGI (SW-620 colon): 22700 nM
- TGI (T-47D breast): 54600 nM
- TGI (TK-10 renal): 40300 nM
- TGI (U251 CNS): 65600 nM
- TGI (UACC-257 melanoma): 36500 nM
- TGI (UACC-62 melanoma): 35600 nM
- TGI (UO-31 renal): 24600 nM
